# Laboratory results reported in patent US5633009A, “Transdermal administration of azapirones” (Sano Corporation, priority 1993, dated 1997).
# Legend:
# depression = test: treatment of out-patients with clinically assessed depression; assay type: in vivo, human; conditions: transdermal device of Example 6, daily for four weeks; twenty out-patients in two groups
# Description: Transdermal delivery devices are prepared as described in Example 6. Twenty out-patients comprised of both males and females and suffering from clinically assessed depression are divided into two groups.
# [1] = in vivo, po; cited from earlier work
# premenstrual syndrome = test: treatment of women suffering from premenstrual syndrome; assay type: in vivo, human; conditions: transdermal device of Example 6, five days preceding the onset of menstruation; eight women
# clinical = conditions: human, in vivo
# [2] = tested on: psychogenic symptomatologies; conditions: oral; anxiety, depression, panic disorders, nicotine dependence and others; cited from earlier work
# [3] = tested on: nicotine dependence / nicotine withdrawal symptoms; test: smoking cessation: nicotine dependence and withdrawal symptoms in individuals attempting to stop smoking; assay type: in vivo, human; conditions: transdermal device of Example 1, 20 cm^2, changed once a day for 21 days; five individuals
# Description: Transdermal delivery devices are prepared as described in Example 1.
# [4] = examination of patch for recrystallization after 24 months storage; assay type: physicochemical; conditions: Example 2 matrix patch (polyvinylacetate, isocetyl alcohol)
# Description: The matrix layer mixture is slot die coated onto the backing layer. To do this, the mixture is allowed to flow through a slot to form a thin coat of a desired thickness, containing approximately 20 mg/cm^2 of the mixture, which is deposited onto a layer of polyester film laminate backing layer (ScotchPak 1012, 3M Corporation, St. Paul, Minn.).
# A layer of double-sided pressure-sensitive polyacrylate adhesive and a layer of silicone coated polyester release liner are laminated to the face of the matrix facing away from the backing layer to form a quadruple laminate of backing layer/buspirone loaded matrix layer/pressure-sensitiveadhesive layer/release liner (peel strip) layer. […] For use, one transdermal buspirone delivery device is removed from its packet, the release liner (peel strip) layer is removed and discarded, and the pressure-sensitive adhesive layer is applied firmly to the patient's arm.
Compound,improvement of depression versus placebo patches (depression),absorption from the gastrointestinal tract [1],premenstrual syndrome symptoms (premenstrual syndrome),Tmax (clinical; po),AUC (clinical; topical or ocular),Cmax (clinical; topical or ocular),Tmax (clinical; topical or ocular),clinical response of psychogenic symptomatologies [2],nicotine dependence [3],"symptoms including drowsiness, restlessness, headache, irritability, inability to concentrate, and increased appetite [3]",recrystallization in patch on storage [4]
O=C1CC2(CCCC2)CC(=O)N1CCCCN1CCN(c2ncccn2)CC1 [buspirone],significant improvement,poorly absorbed,decrease in their symptoms,0.8 h,12.7 ng·h/mL,0.79 ng/mL,16.5 h,responsive to oral buspirone,decrease in nicotine dependence,decrease in symptoms,–
O=C1c2ccccc2S(=O)(=O)N1CCCCN1CCN(c2ncccn2)CC1 [ipsapirone],–,–,–,–,–,–,–,–,–,–,no recrystallization
